From patent US20060172941A1, “Anti-angiogenic peptides and methods of use thereof” (priority 2004, published 2006)
Entries after “also recorded” stand apart in the source; their conditions may differ. One block for each sequence: values may come before it. Where no end group is shown, it is not given here. [ ]: non-standard residue; d: D form.

How the values were obtained:
[1] = test system: Bovine Retinal Endothelial Cells (BRE); experiment: VEGF-mediated survival/proliferation of bovine retinal endothelial cells (WST1); assay type: cell-based; settings: VEGF 25 ng/ml, 72 hours; for Inhibition of VEGF-mediated survival/proliferation: FIG. 4 and 5
Procedure: (§1) The anti-angiogenic activities of the peptides were tested by measuring the level of inhibition of VEGF and bFGF mediated survival/proliferation of Bovine Retinal Endothelial Cells (BRE), Human Dermal Microvasculature Endothelial Cells, and Human Umbilical Vein Endothelial Cells, all of which are standard cell lines used to test anti-angiogenic compounds.
Bovine retinal endothelial (BRE) cells were maintained in Cambrex EG2 media. For non-adherent cell assays, on day one cells were starved for either 6 hours or overnight, then trypsinized and plated in 96-well plates in 100 μl of Optimem plus 1% fetal bovine serum (FBS). One hundred μl of Optimem plus 1% FBS was added to the wells containing, where appropriate, VEGF to a final concentration of 25 ng/ml, and the various peptides to final concentrations as described. For adherent cells, cells were plated in 96-well plates in complete media, allowed to adhere overnight, washed in starvation media (Optimem plus 1% FBS) and then starved during the day. At the end of the day, 100 μl of Optimem plus 1% FBS was added to the wells containing, where appropriate, VEGF to a final concentration of 25 ng/ml and the various peptides to final concentrations as described.
(§2) In all cases, after 72 hours incubation, the amount of live cells in each well was measured with the WST1 assay (Roche).

B16-F1 melanoma cells = experiment: Subcutaneous B16 melanoma tumor growth in vivo; parameters: species or system mouse
Procedure: Because of the importance of the angiogenic process for tumorigenesis, miniproteins as described herein, were hypothesized to show good anti-tumor activity. The peptides of the invention were tested in an in vivo model of anti-tumor activity. This model compares the growth of subcutaneous B16 melanoma tumor in vivo either untreated or treated with various amount of miniproteins described in this application. This model is widely accepted in the art as a model to test the anti-tumor activity of compounds that inhibit tumor growth because they have anti-angiogenic activity.
Male C57BL/6 mice were obtained with a mean body weight of 20±2 g. Mouse B16-F1 melanoma cells were implanted subcutaneously (5×10^5 cell per animal). Peptides (formulated in water) were administered ip daily at the amount indicated starting the day after cells injection. In general, tumors became palpable around 9 days after injection of cells. Tumor were then measured every 2 days.

[2] = test system: VEGF binding to its receptor; experiment: Inhibition of binding of radiolabeled VEGF to endothelial cells; settings: 30 μM; for VEGF binding inhibition: FIG. 7 legend
Procedure: The activity of the peptides SEQ ID NO.: 1 and SEQ ID NO.: 2 in blocking the binding of radiolabeled VEGF to endothelial cells is shown in FIG. 7.
FIG. 7 illustrates the inhibition of VEGF binding to its receptor by two miniproteins wherein a heparin binding domain is linked to an integrin binding domain. […] Both peptides achieved an almost 100% inhibition at a concentration of 30 μM.

[3] = Heparin binding activity, Hi Trap Heparin HP column, NaCl step elution; settings: for [NaCl] for elution: heparin column; for fraction number: 500 μl fractions of heparin column elution
Text: Liquid chromatography was used to determine the relative levels of heparin binding activity of the individual heparin binding domains and of the anti-angiogenic miniproteins that contains them. In this assay, the strength of the heparin binding activity is proportional to the amount of NaCl that is required to elute the peptide bound to the heparin column. Peptides with low binding activity are eluted with lower NaCl concentration, whereas higher concentrations of NaCl are required for peptides with higher binding activity.
Hi Trap Heparin HP column (1 ml, Amersham Biosciences) was equilibrated with 10 column volumes (CV) of equilibration (EQ) buffer=10 mM NaH2PO4 pH 7. All buffers were loaded onto columns via syringes. 500 μl fractions are collected (flow rate=1 ml/minute). 500 μg of peptide (1 mg/ml, resuspended in EQ buffer) was added to each column and the flow through was collected for analysis. The columns were then washed with 3 CV of EQ buffer. Peptides are then eluted with a step gradient of 500, 625, 750, 875 mM NaCl in EQ buffer, 2 CV per each step. A final step of 3 CV of 1000 mM NaCl in EQ buffer was collected in 500 μl fractions. The A210 nm was measured using EQ and elution buffers as blanks.

[4] = test system: L1210 murine leukemia cells; experiment: L1210 murine leukemia intravenous model, survival; assay type: in vivo, mouse; settings: dosed IP, FIG. 15a; for Survival: DBA/2 mice
Procedure: Antitumor activity of test peptides, administered intraperitoneally (IP), were evaluated against L1210 murine leukemia cells implanted intravenously (IV) in DBA/2 mice.
Studies generally consisted of randomly-assigned groups of 8 mice per group, which were inoculated IV with 1×10^5 cells per mouse from an in vivo leukemia cell line. In addition to groups tested with test peptides, studies usually included a vehicle-treated control group and a positive control group treated with an agent known to be active in the L1210 leukemia model. Starting one day after tumor inoculation (inoculation day defined as Day 0), mice were treated IP with either vehicle or test peptides in various schedules. Generally this consisted of treatment every other day for approximately 1 week (e.g., Days 1, 3, 5 and 7). A positive agent (e.g., cyclophosphamide) was usually given as a single IP injection on Day 1. All dosing solutions were prepared on each day of treatment. Survival was monitored daily and body weights were measured twice weekly. Anti-tumor activity was assessed by the increase in lifespan of the treated groups in comparison to the vehicle-treated control group. Studies with the L1210 leukemia model were limited to 30 days.

[5] = test system: Human Umbilical Vein Endothelial Cells; experiment: bFGF-mediated survival/proliferation of human umbilical vein endothelial cells (WST1); assay type: cell-based; settings: FIG. 6, 9, 10, 17
Procedure: as §1
Human umbilical cord endothelial (HUVEC) cells were maintained in Cambrex EGM-2MV media. On day one, cells were starved overnight in 1% FBS in M200 media (Cascade Biologicals). The morning after, the media were replaced with serum-free media (control) or media containing 25 ng/ml of human VEGF165 and the various peptides to final concentrations as described.
as §2

[6] = 20 mg/kg daily IP, vs untreated controls, FIG. 12 and 14
[7] = step gradient in 10 mM NaH2PO4 pH 7

Sequence: ATSLPPHSSQSP (listed as Homo sapiens) [ST100,038]
- Concentration that completely abolished VEGF-induced increase in WST-1 value ([1]; FIG. 4): above 40 μM
- Inhibition of VEGF-mediated survival/proliferation [1]: caused the amount of WST-1 to decrease

Sequence: ATSLPPHSSQSPGGGPPAARGRRAARGRR (listed as Homo sapiens) [ST100,062]
- P (ANOVA) of tumor growth inhibition (B16-F1 melanoma cells; 20 mg/kg daily IP, FIG. 12): > 0.05
- Inhibition of tumor growth (B16-F1 melanoma cells; [6]): clearly inhibit tumor growth

Sequence: PYAGRGDSVVYGLGGGPGAARGRRAARGRR [ST100,033]
- inhibition of VEGF binding [2]: ~100%
- VEGF binding inhibition [2]: completely abolished VEGF binding

Sequence: RAAKKRARAAKKRARAAKKRLGYVVSDGRGDYP (listed as Homo sapiens) [ST100,079]
- [NaCl] for elution [3, 7]: 1000 mM

Sequence: RKKAARARKKAARARKKAARRLGYVVSDGRGDYP (listed as Homo sapiens) [ST100,081]
- fraction number [3]: 26-27
- [NaCl] for elution [3, 7]: 1000 mM

Sequence: RLGYVVSDGRGDYPKKKRRGRAARRGRAA [ST100,065, middle rotated replaced version of ST100,061]
- heparin binding activity (comparison in words) [3]: bind less strongly than ST100,082
- [NaCl] for elution [3, 7]: 750 mM
- Survival [4]: statistically significant increases in survival
- mice (cured mice) that survived longer than 30 days [4]: Sixty to eighty

Sequence: RRGRAAKKKRRGRAAKKKPSQSSHPPLSTA (listed as Homo sapiens) [ST100,072]
- Inhibition of bFGF-mediated survival [5]: more potent in blocking bFGF stimulation
- fraction number [3]: 26-27
- [NaCl] for elution [3, 7]: 1000 mM

Sequence: RRGRAAKKKRRGRAAKKKRLGYVVSDGRGDYP [ST100,074]
- Inhibition of bFGF-mediated survival [5]: the most active in inhibiting bFGF stimulation
- fraction number [3]: 27-28
- [NaCl] for elution [3, 7]: 1000 mM
- Survival [4]: statistically significant increases in survival
- mice (cured mice) that survived longer than 30 days [4]: Sixty to eighty

Sequence: RRGRAARRGRAAKKKPSQSSHPPLSTA (listed as Homo sapiens) [ST100,068]
- Inhibition of VEGF-mediated survival/proliferation [1]: VEGF stimulation was inhibited with increasing doses; also recorded: more potent in blocking VEGF stimulation
- [NaCl] for elution [3, 7]: 875 mM
- Inhibition of tumor growth (B16-F1 melanoma cells; 20 mg/kg and 40 mg/kg daily IP, FIG. 13): able to inhibit tumor growth

Sequence: RRGRAARRGRAARRGRAAKKKPSQSSHPPLSTA (listed as Homo sapiens) [ST100,073]
- Inhibition of bFGF-mediated survival [5]: more potent in blocking bFGF stimulation; also recorded: the most active in inhibiting bFGF stimulation
- fraction number [3]: 26-27
- [NaCl] for elution [3, 7]: 1000 mM
- Inhibition of tumor growth (B16-F1 melanoma cells; [6]): able to inhibit tumor growth

Sequence: RRGRRRGRRRGRRRGKKPSQSSHPPLSTA ([dR][dR]G[dR][dR][dR]G[dR][dR][dR]G[dR][dR][dR]G[dK][dK][dP][dS][dQ][dS][dS][dH][dP][dP][dL][dS][dT][dA]; listed as Homo sapiens) [ST100,093]
- Inhibition of bFGF-mediated survival [5]: more potent than similar peptides with weaker heparin binding domains

Sequence: YDGRGDSVVYGLKKKAARGRRAARGRR [ST100,032]
- inhibition of VEGF binding [2]: ~100%
- VEGF binding inhibition [2]: completely abolished VEGF binding

More lines, now with the values ahead:

- heparin binding activity (comparison in words) [3]: even greater increase in heparin binding
- fraction number [3]: 35-36
- [NaCl] for elution [3, 7]: 1500 mM
Sequence: RKGRRKGRRKGRRKGRRKGKK ([dR][dK]G[dR][dR][dK]G[dR][dR][dK]G[dR][dR][dK]G[dR][dR][dK]G[dK][dK]; listed as Homo sapiens) [ST100,087]

- [NaCl] for elution [3, 7]: 1100 mM
Sequence: RKRAARARKRAARARKRAARR (listed as Homo sapiens) [ST100,083]

- fraction number [3]: 26-27
- [NaCl] for elution [3, 7]: 1000 mM
Sequence: RRGRAAKKKRRGRAAKKK (listed as Homo sapiens) [ST100,082]

- fraction number [3]: 31-32
- [NaCl] for elution [3, 7]: 1100 mM
Sequence: RRGRARRGRARRGRARRGKK ([dR][dR]G[dR][dA][dR][dR]G[dR][dA][dR][dR]G[dR][dA][dR][dR]G[dK][dK]; listed as Homo sapiens) [ST100,085]

- heparin binding activity (comparison in words) [3]: even greater increase in heparin binding
- fraction number [3]: 34-35
- [NaCl] for elution ([3]; unit given as M): 1300 mM
Sequence: RRGRRRGRRRGRRRGKK (listed as Homo sapiens) [ST100,089]

- heparin binding activity (comparison in words) [3]: even greater increase in heparin binding
- fraction number [3]: 33-34
- [NaCl] for elution [3, 7]: 1300 mM
Sequence: RRQRRRGRRRQRRRGKK (listed as Homo sapiens) [ST100,090]
